US6881728B1, “14-β, 17-α-hydroxymethylandrostane derivatives as androgens” (Akzo Nobel N.V., priority 1999, dated 2005)

System: not given
Assay: not given
Work on C[C@]12CC[C@H]3[C@@H](CCC4=CC(=O)CC[C@@H]43)[C@H]1CC[C@H]2CO [Example 1, (14β,17α)-17-(Hydroxymethyl)estr-4-en-3-one] yielded a melting point of 115 to 118 °C. Work on CC(=O)OC[C@@H]1CC[C@@H]2[C@@H]3CCC4=CC(=O)CC[C@]4(C)[C@H]3CC[C@]12C [Example 22a, (14β,17α)-17-[(Acetyloxy)methyl]androst-4-en-3-one] yielded a melting point of 141 to 142 °C.

Target: T1, human androgen receptor (Homo sapiens, UniProt P10275)
T1 construct: host or cells: MCF-7 cytosol (endogenous) or CHO cells transfected with hAR
T1 sequence (P10275 1-920): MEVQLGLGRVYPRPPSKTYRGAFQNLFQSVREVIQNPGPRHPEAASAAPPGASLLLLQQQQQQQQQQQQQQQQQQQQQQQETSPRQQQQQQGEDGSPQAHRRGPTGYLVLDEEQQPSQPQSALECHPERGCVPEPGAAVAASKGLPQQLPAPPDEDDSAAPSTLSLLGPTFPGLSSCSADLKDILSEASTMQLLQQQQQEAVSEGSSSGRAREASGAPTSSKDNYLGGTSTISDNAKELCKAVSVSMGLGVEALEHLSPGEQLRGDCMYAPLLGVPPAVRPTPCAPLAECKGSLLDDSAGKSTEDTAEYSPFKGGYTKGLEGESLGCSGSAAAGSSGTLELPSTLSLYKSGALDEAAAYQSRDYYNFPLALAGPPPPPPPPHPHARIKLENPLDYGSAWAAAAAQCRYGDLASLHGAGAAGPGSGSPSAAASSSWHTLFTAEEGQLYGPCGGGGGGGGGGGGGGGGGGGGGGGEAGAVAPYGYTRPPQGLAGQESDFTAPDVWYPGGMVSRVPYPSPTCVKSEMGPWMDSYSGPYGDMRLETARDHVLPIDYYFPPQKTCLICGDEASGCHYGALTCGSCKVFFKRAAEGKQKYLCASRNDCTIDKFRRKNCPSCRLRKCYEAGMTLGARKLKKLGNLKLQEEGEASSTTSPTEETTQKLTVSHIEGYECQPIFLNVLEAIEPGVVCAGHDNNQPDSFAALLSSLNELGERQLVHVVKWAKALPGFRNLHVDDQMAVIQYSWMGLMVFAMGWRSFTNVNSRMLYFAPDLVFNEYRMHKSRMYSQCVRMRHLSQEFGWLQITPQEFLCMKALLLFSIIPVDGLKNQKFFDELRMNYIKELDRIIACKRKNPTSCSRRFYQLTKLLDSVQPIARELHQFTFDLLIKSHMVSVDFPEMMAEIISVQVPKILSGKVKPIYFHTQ
Assay: androgenic activity rating (procedures described above; which one underlies the rating is not stated)
Design: key: +: androgenic activity found; ++: high androgenic activity; +++: excellent androgenic activity
Protocol: Androgenic activity can be measured in various ways. Thus, the potency of androgens can be determined in vitro using the cytoplasmic androgen receptor from human breast tumor cells (MCF-7 cell line); see Bergink, E. W. et al, Comparison of the receptor binding properties of nandrolone and testosterone under in vitro and in vivo conditions, J. Steroid Biochem. 22, 831-836 (1985). It is also possible to use Chinese hamster ovary (CHO) cells transfected with the human androgen receptor (incubation time 16 h, temperature 4° C.) and compared with the affinity of 5α-dihydrotestosterone [according to the procedure described by Bergink, E. W. et al, J. Steroid Biochem. 12, 1563-1570 (1983)]. The transactivative androgen activity of the compounds of the invention can be measured, e.g. in Chinese hamster ovary cells (CHO) transfected with the human androgen receptor (hAR), in combination with a mouse mammary tumor virus (MMTV), and luciferase […] (incubation time 16 h, temperature 37° C.) and compared with the activity of 5α-dihydrotestosterone [according to the procedure described by Schoonen, W. G. E. J. et al, Analyt. Biochem. 261, 222-224 (1998)]. For the in vivo potency determination of androgens the classical Hershberger test can be used. In this test the androgenic (increase in prostate weight) and anabolic activities [increase of the musculus levator ani (MLA)] of a compound are tested in immature castrated rats after daily administration for 7 days; see Hershberger, L. G. et al, Myotrophic activity of 19-Nortestosterone and other steroids determined by modified levator ani muscle method, Proceedings of the society for experimental biology and medicine 83, 175-180 (1953). Additionally, the effect of an androgenic compound on LH suppression can be tested in mature castrated rats according to Kumar, N. et al, The biological activity of 7alpha-methyl-19-nortestosterone is not amplified in male reproductive tract as is that of testosterone, Endocrinology 130, 3677-3683 (1992).
A plurality of compounds according to the invention were tested for androgenic activity (the procedures for which have been described above) and rated in the Table below according to the following scheme: • + androgenic activity found; • ++ high androgenic activity; • +++ excellent androgenic activity; • nd no data available
In the case of C[C@]12CC[C@H]3[C@@H](CCC4=CC(=O)CC[C@@H]43)[C@H]1CC[C@H]2CO [Example 1, (14β,17α)-17-(Hydroxymethyl)estr-4-en-3-one], the “Rating (androgenic activity)” value is reported as “+++”. In the case of CC(=O)OC[C@@H]1CC[C@@H]2[C@@H]3CCC4=CC(=O)CC[C@]4(C)[C@H]3CC[C@]12C [Example 22a, (14β,17α)-17-[(Acetyloxy)methyl]androst-4-en-3-one], the “Rating (androgenic activity)” value is reported as “+”. For CC(O)C1CCC2C3CCC4=CC(=O)CCC4C3CCC12C [Example 24a, (14β,17α,20S)-20-Hydroxy-19-norpregn-4-en-3-one], the “Rating (androgenic activity)” value was “++”. In the case of CC(O)C1CCC2C3CCC4=CC(=O)CCC4C3CCC12C [Example 24b, (14β,17α,20R)-20-Hydroxy-19-norpregn-4-en-3-one], the “Rating (androgenic activity)” value is reported as “+”. In the case of CC[C@H](O)[C@@H]1CC[C@@H]2[C@@H]3CCC4=CC(=O)CC[C@@H]4[C@H]3CC[C@@]21C [Example 25a], the “Rating (androgenic activity)” value is reported as “++”. For CCC(O)[C@@H]1CC[C@@H]2[C@@H]3CCC4=CC(=O)CC[C@@H]4[C@H]3CC[C@@]21C (stereo partly drawn) [Example 25b, [14β,17α(R)]-17-(1-Hydroxypropyl)estr-4-en-3-one], the “Rating (androgenic activity)” value was “+”. For CCC[C@H](O)[C@@H]1CC[C@@H]2[C@@H]3CCC4=CC(=O)CC[C@@H]4[C@H]3CC[C@@]21C [Example 25c, (14β,17α,20S)-20-Hydroxy-19,21-dinorchol-4-en-3-one], the “Rating (androgenic activity)” value was “+”. In the case of CC(O)C1CCC2C3CCC4=CC(=O)CCC4=C3CCC12C [Example 27a, (14β,17α,20S)-20-Hydroxy-19-norpregna-4,9-dien-3-one], the “Rating (androgenic activity)” value is reported as “++”. With CC(O)C1CCC2C3CCC4=CC(=O)CCC4=C3CCC12C [Example 27b, (14β,17α,20R)-20-Hydroxy-19-norpregna-4,9-dien-3-one] the “Rating (androgenic activity)” value was “+”. For CCC1CC2(C)C(C(C)O)CCC2C2CCC3=C(CCC(=O)C3)C12 [Example 28a, (11β,14β,17α,20S)-11-Ethyl-20-hydroxy-19-norpregn-5(10)-en-3-one], the “Rating (androgenic activity)” value was “+”. In the case of CCC1CC2(C)C(C(C)O)CCC2C2CCC3=CC(=O)CCC3C12 [Example 29a, (11β,14β,17α,20S)-11-Ethyl-20-hydroxy-19-norpregn-4-en-3-one], the “Rating (androgenic activity)” value is reported as “+”. With C=CC1CC2(C)C(C(C)O)CCC2C2CCC3=CC(=O)CCC3=C12 [Example 30, (11β,14β,17α,20S)-11-Ethenyl-20-hydroxy-19-norpregna-4,9-dien-3-one] the “Rating (androgenic activity)” value was “+”. With CCC12CCC3C4CCC(=O)C=C4CCC3C1CCC2C(C)O [Example 32a, (14β,17α,20S)-13-Ethyl-20-hydroxy-18,19-dinorpregn-4-en-3-one] the “Rating (androgenic activity)” value was “+”. In the case of CC(=O)OC[C@@H]1CC[C@@H]2[C@H]3[C@H](CC[C@]12C)[C@H]1CCC(=O)C=C1C[C@H]3C [Example 33a, (7α,14β,17α)-17-[(Acetyloxy)methyl]-7-methylestr-4-en-3-one], the “Rating (androgenic activity)” value is reported as “+”. For CCCCCCCCCCC(=O)OC[C@@H]1CC[C@@H]2[C@H]3[C@H](CC[C@]12C)[C@H]1CCC(=O)C=C1C[C@H]3C [Example 33c, (7α,14β,17α)-7-Methyl-17-[[(1-oxoundecyl)oxy]methyl]estr-4-en-3-one], the “Rating (androgenic activity)” value was “+”. With C[C@@H]1CC2=C[C@@H](O)CC[C@@H]2[C@H]2CC[C@]3(C)[C@H](CO)CC[C@@H]3[C@@H]21 [Example 34, (3β,7α,14β,17α)-17-(Hydroxymethyl)-7-methylestr-4-en-3-ol] the “Rating (androgenic activity)” value was “++”. With C[C@@H]1CC2=C/C(=N/O)CC[C@@H]2[C@H]2CC[C@]3(C)[C@H](CO)CC[C@@H]3[C@@H]21 [Example 36a, (3E,7α,14β,17α)-3-(Hydroxyimino)-7-methylestr-4-ene-17-methanol] the “Rating (androgenic activity)” value was “+”. In the case of C[C@@H]1CC2=CCCC[C@@H]2[C@H]2CC[C@]3(C)[C@H](CO)CC[C@@H]3[C@@H]21 [Example 37, (7α,14β,17α)-7-Methylestr4-ene-17-methanol], the “Rating (androgenic activity)” value is reported as “+”.
